US20050271739A1, “Methods and compositions for accelerating alcohol metabolism” (priority 2004, published 2005)
“And” between values parts separate entries of the source, which are not always exact repeats. Equal values may be shown once.

Tests used:
alcohol dehydrogenase [1] = assay: Effect of thyroxine analogues on alcohol dehydrogenase activity; assay type: biochemical; details: for Relative Increase (%): None = 100
[2] = test system: malate-aspartate shuttle in rabbit liver mitochondria; assay: NADH oxidation by malate-aspartate shuttle in liver mitochondria; assay type: biochemical; details: for Effect on oxidation of NADH: added to rabbit liver mitochondria
alcohol dehydrogenase [3] = assay: Effect of hormonal compounds on enzyme activity of alcohol dehydrogenase; assay type: biochemical; parameters: Relative activity (%): concentration or dose not given beside the values; details: for Relative activity (%): Control = 100.0
[4] = blood alcohol reading; cited from earlier work
[5] = test system: oxidation of ethanol and acetaldehyde; assay: Absorbance change of pig liver extract without INT (340 nm) and with INT (500 nm); assay type: biochemical; details: animal glandular extract, in the presence of INT
Procedure: Phosphate buffer: 0.05 M (pH=7.5); INT: 12.7 mM; ethanol: 1.0% (V/V); aldehyde: 17.6 mM. No NAD was added.
As described in testing method f, in the presence of diaphorases, INT is reduced to forzaman, while NADH is oxidized to NAD in a 1:1 mole stoichiometric ratio. Therefore, the increase in the absorbance at 500 nm is directly proportional to the concentration of forzaman.
FIG. 3 and Table 4 show the change of absorbance at 500 nm versus time. […] Since NAD and NADH are high very difficult to purify, the costs of use of external high purity NAD has been proven to be prohibitively high. The present invention provides a cost-effective method for preparing the enzyme-coenzyme formulation.

aldehyde dehydrogenase = assay: Thyroxine stimulation of aldehyde dehydrogenase activity; assay type: biochemical
Text: Thyroxine has extremely high stimulating effect on the enzyme activity of alcohol dehydrogenases and aldehyde dehydrogenases. […] Some are as twice effective as thyroxine at the same concentration.

[6] = test system: Alcohol dehydrogenase (from Sigma Aldrich Chemical Company); assay: Alcohol dehydrogenase activity vs. NAD concentration; assay type: biochemical; details: Tris Buffer pH 8.5, ethanol 3% (V/V), ADH 5 units, 340 nm
Procedure: Testing conditions: 0.05 M Tris Buffer (pH=8.5); ethanol=3% (V/V); Alcohol dehydrogenase (from Sigma Aldrich Chemical Company): 5 units. ADH activity was determined by measuring absorbance change at 340 nm.

[7] = test system: alcohol dehydrogenase prepared from yeast extract; assay: NAD regeneration through coupling reactions with yeast extract ADH, INT and diaphorase; assay type: biochemical; details: 0.5 mM and 2.0 mM NAD, ethanol 1.0% (V/V), pH 7.5
Procedure: Phosphate buffer: 0.05 M (pH=7.5); ethanol: 1.0% (V/V). There was no absorbance change in the absence of NAD.
Phosphate buffer: 0.05 M (pH=7.5); INT: 12.7 mM; ethanol: 1.0% (V/V); NAD=2.0 mM; Diaphorase: 2 units.
In this example, the INT system was selected to illustrate the effectiveness of the regeneration of NAD by coupling compounds, since the reaction product, i.e., formazan, gives a maximum absorbance at 500 nm. Then the coupling reactions (see FIG. 6) can be directly quantified by spectrophotometric measurements.

blood alcohol = assay: In vivo test of alcohol metabolism by dog (blood alcohol reading)
Procedure: Dog body weight: 13.9 kilograms. 42 grams of alcohol was administrated at time 0. ●—Control (i.e., no further treatment in the first 5 hours); ▪—10 grams pyruvate was administrated orally at 5 hours; ▴ 10 grams of alanine was administrated at 1.5 hour and then 5 hours.
In this example, the effectiveness of using compositions described above for accelerating alcohol metabolism was validated by in vivo tests with dogs. Six dogs (as described in Table 9) were used in the in vivo tests. The dogs were fasted 12 to 16 hours and then given 20% alcohol orally in a dose of 3 g/kg body weight. Approximately 1.5 hours were allowed for complete absorption and distribution of the alcohol. Blood samples were taken from the leg veins. The blood alcohol reading (BAR) was determined by measuring alcohol concentration in blood using the Sigma Aldrich alcohol assay method (Assay No. 333).

[8] = average of the dog tests, 5 or 10 g

Molecule: NC(Cc1ccc(Oc2ccc(O)cc2)cc1)C(=O)O (racemic) [DL-thyronine]
- Absorbance Change (units/min @ 340 nm) (alcohol dehydrogenase [1]; Dosage 17 μM): 0.535 units/min
- Relative Increase (%) (alcohol dehydrogenase [1]; Dosage 17 μM): 535%

Molecule: O=C([O-])CC(O)C(=O)[O-].[Na+].[Na+] (racemic) [malate, DL-Hydroxybutanedioic acid]
- Effect on oxidation of NADH [2]: substantially increases the oxidation of NADH
- Relative effectiveness in NADH oxidation ([2]; malate vs. aspartate): more effective than aspartate

Molecule: O=C(O)CCc1cc(I)c(Oc2cc(I)c(O)c(I)c2)c(I)c1 [3,3,5,5′-tetraiodothyropropionic acid]
- Absorbance Change (units/min @ 340 nm) (alcohol dehydrogenase [1]; Dosage 17 μM): 0.75 units/min
- Relative Increase (%) (alcohol dehydrogenase [1]; Dosage 17 μM): 750%

Molecule: O=C(O)Cc1cc(I)c(Oc2ccc(O)c(I)c2)c(I)c1 [3,3′5-triiodothyroacetic acid]
- Absorbance Change (units/min @ 340 nm) (alcohol dehydrogenase [1]; Dosage 17 μM): 0.715 units/min
- Relative Increase (%) (alcohol dehydrogenase [1]; Dosage 17 μM): 715%

Molecule: O=C(O)CCc1cc(I)c(Oc2ccc(O)c(I)c2)c(I)c1 [3,3′5-triiodothyropropionic acid]
- Absorbance Change (units/min @ 340 nm) (alcohol dehydrogenase [1]; Dosage 17 μM): 0.676 units/min
- Relative Increase (%) (alcohol dehydrogenase [1]; Dosage 17 μM): 676%

Molecule: O=C(O)CCc1ccc(Oc2cc(I)c(O)c(I)c2)c(I)c1 [3,3′5′-triiodothyropropionic acid]
- Absorbance Change (units/min @ 340 nm) (alcohol dehydrogenase [1]; Dosage 17 μM): 0.865 units/min
- Relative Increase (%) (alcohol dehydrogenase [1]; Dosage 17 μM): 865%

Molecule: N[C@@H](Cc1cc(Br)c(Oc2ccc(O)c(I)c2)c(Br)c1)C(=O)O [3,5-dibromo-3′-iodo-thyronine]
- Absorbance Change (units/min @ 340 nm) (alcohol dehydrogenase [1]; Dosage 17 μM): 0.48 units/min
- Relative Increase (%) (alcohol dehydrogenase [1]; Dosage 17 μM): 480%

Molecule: N[C@@H](Cc1cc(I)c(O)c(I)c1)C(=O)O [3,5-diiodo-l-thyrosine]
- Absorbance Change (units/min @ 340 nm) (alcohol dehydrogenase [1]; Dosage 170 μM): 0.256 units/min
- Relative Increase (%) (alcohol dehydrogenase [1]; Dosage 170 μM): 256%
- Absorbance Change (units/min @ 340 nm) (alcohol dehydrogenase [1]; Dosage 340 μM): 0.36 units/min
- Relative Increase (%) (alcohol dehydrogenase [1]; Dosage 340 μM): 360%

Molecule: C[C@]12CCC(=O)C=C1CC[C@@H]1[C@@H]2CC[C@]2(C)C(=O)CC[C@@H]12 [4-Androsterone-3,17-dione]
- Relative activity (%) (alcohol dehydrogenase [3]): 128%

Molecule: CCO [Alcohol, ethanol]
- Anesthetic effects (BAR) [4]: (0.30-0.40%)
- Death; LD50 (BAR) [4]: (0.45-0.50%)

Molecule: C[C@]12CC[C@@H](O)C[C@@H]1CC[C@@H]1[C@@H]2CC[C@]2(C)C(=O)CC[C@@H]12 [Androsterone]
- Relative activity (%) (alcohol dehydrogenase [3]): 119%

Molecule: C[C@]12C[C@H](O)[C@H]3[C@@H](CCC4=CC(=O)CC[C@@]43C)[C@@H]1CC[C@@H]2C(=O)CO [Corticosterone]
- Relative activity (%) (alcohol dehydrogenase [3]): 112%

Molecule: C[C@]12CCC(=O)C=C1CC[C@@H]1[C@@H]2C(=O)C[C@@]2(C)[C@H]1CC[C@]2(O)C(=O)CO [Cortisone]
- Relative activity (%) (alcohol dehydrogenase [3]): 116%

Molecule: C[C@]12CC[C@H](O)CC1=CC[C@@H]1[C@@H]2CC[C@]2(C)C(=O)CC[C@@H]12 [Dehydroepi-androsterone]
- Relative activity (%) (alcohol dehydrogenase [3]): 200%

Molecule: C[C@]12CC[C@H]3[C@@H](CCC4=CC(=O)CC[C@@]43C)[C@@H]1CC[C@@H]2C(=O)CO [Deoxycorticosterone]
- Relative activity (%) (alcohol dehydrogenase [3]): 115%

Molecule: CC/C(=C(/CC)c1ccc(O)cc1)c1ccc(O)cc1 [Diethylstilbestrol]
- Increase of alcohol dehydrogenase activity (alcohol dehydrogenase [3]; as low as 10 μM): more than 100%

Molecule: O=[N+]([O-])c1ccc(-n2nc(-c3ccccc3)n[n+]2-c2ccc(I)cc2)cc1.[Cl-] [INT]
- Effect of INT on oxidation of ethanol and acetaldehyde [5]: enhanced substantially

Molecule: N[C@@H](Cc1cc(I)c(Oc2cc(I)c(O)c(I)c2)c(I)c1)C(=O)O [L-thyroxine, L-Thyroxine]
- Absorbance Change (units/min @ 340 nm) (alcohol dehydrogenase [1]; Dosage 17 μM): 0.30 units/min
- Relative Increase (%) (alcohol dehydrogenase [1]; Dosage 17 μM): 300%
- Increase of enzyme activity (aldehyde dehydrogenase; as little as 2 μM): > 100%
- Effect on alcohol and aldehyde dehydrogenases at high dosages (aldehyde dehydrogenase; high dosages): becomes an inhibitor of the enzymes

Molecule: NC(=O)c1ccc[n+]([C@@H]2O[C@H](COP(=O)([O-])OP(=O)(O)OC[C@H]3O[C@@H](n4cnc5c(N)ncnc54)[C@H](O)[C@@H]3O)[C@@H](O)[C@H]2O)c1 [NAD, Nicotinamide Adenine Dinucleotide (NAD)]
- Alcohol oxidation by alcohol dehydrogenase vs. NAD concentration [6]: increases with increasing NAD concentration
- Absorbance on addition of NAD [7]: increases the absorbance

Molecule: CC(=O)[C@H]1CC[C@H]2[C@@H]3CCC4=CC(=O)CC[C@]4(C)[C@H]3CC[C@]12C [Progesterone]
- Relative activity (%) (alcohol dehydrogenase [3]): 120%

Molecule: CC12CCC(=O)C=C1CCC1C2CCC2(C)C(O)CCC12 (centres unmarked) [Testerone]
- Relative activity (%) (alcohol dehydrogenase [3]): 137%

Molecule: CC(=O)C(=O)[O-].[Na+] [sodium pyruvate, Pyruvic acid sodium salt]
- BAR Reduction Rate after first dose, Average (blood alcohol; [8]): 211.4 ppm/hr
- BAR Reduction Rate after second dose, Average (blood alcohol; [8]): 197.9 ppm/hr
- BAR Reduction Rate after first dose (blood alcohol; dog, oral, 5 g, first dosing at 266-410 min after ethanol 3 g/kg, sodium salt): 212 ppm/hr and 160 ppm/hr and 253 ppm/hr and 252 ppm/hr
- BAR Reduction Rate after second dose (blood alcohol; dog, oral, 10 g, second dosing at 310-464 min, sodium salt): 256 ppm/hr and 230 ppm/hr

Molecule: SodiumL-aspartate
- Effect on oxidation of NADH [2]: substantially increases the oxidation of NADH
